{"source": "paper PMC5554220", "about": "“A Novel Aldosterone Antagonist Limits Renal Injury in 5/6 Nephrectomy” (Scientific Reports, 2017)", "key": {"[1]": {"experiment": "Permeability (data not shown)", "assay_type": "in vitro ADME"}, "[2]": {"molecular_target": "T1, human progesterone receptor (hPR) (Homo sapiens, UniProt P06401)", "T1 sequence (P06401 679-933 limits assumed)": "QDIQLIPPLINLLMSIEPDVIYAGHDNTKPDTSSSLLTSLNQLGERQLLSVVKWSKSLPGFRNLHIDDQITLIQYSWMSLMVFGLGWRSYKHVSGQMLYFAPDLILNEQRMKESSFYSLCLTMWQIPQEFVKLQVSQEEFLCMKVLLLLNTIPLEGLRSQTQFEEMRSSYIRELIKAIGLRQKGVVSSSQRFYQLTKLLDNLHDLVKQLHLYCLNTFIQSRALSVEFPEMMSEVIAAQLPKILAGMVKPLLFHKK", "experiment": "Radioligand binding, [3H]progesterone, hPR expressed in Sf9", "description": "(§1) Full-length human mineralocorticoid receptor (hMR) to be used in radioligand binding was isolated from a human kidney cDNA library (Clontech, Palo Alto, CA). […] The hMR, hPR, and hAR cDNAs were subcloned in the eukaryotic expression vector pcDNA3. Methods for the expression of functionally active hMR, hAR and hPR utilizing the baculovirus expression system were described previously, [31].\n(§2) Affinity of ligands to the soluble receptor was determined using vacuum filtration methods, preparing soluble receptors in 96-well Falcon polystyrene plates (BD Biosciences, Bedford, MA) in a total volume of 250 μl. […] Binding studies for ligands for hPR and hAR were determined using [1,2,6,7-3H(N)] […] Specific binding of 3H-progesterone for hPR and 3H-mibolerone for hAR was determined in the presence and absence of 1 μM mifepristone. Inhibition constants (Ki), were determined either from the Cheng-Prusoff equation[32], or directly using non-linear regression curve fitting to a three-parameter one-site competitive equation. […] Protein was measured using colorimetric detection and quantification of bicinchoninic acid (BCA Protein Assay, Pierce, Rockford, IL). […] Concentration response curves were analyzed statistically using a four-parameter logistic equation (Hill equation for sigmoid curves). […]"}, "[3]": {"tested_on": "human androgen receptor (hAR)", "experiment": "Radioligand binding, [3H]mibolerone, hAR expressed in Sf9", "conditions": "selectivity", "description": "as §1, §2"}, "[4]": {"molecular_target": "T2, human androgen receptor (hAR) (Homo sapiens, UniProt P10275, DEL79-80/DUP470-473/R9G)", "T2 construct": "made in house; host or cells: Sf9 insect cells (baculovirus)", "T2 sequence (P10275 with tags, fused parts or gaps R9G/DEL79-80/DUP470-473)": "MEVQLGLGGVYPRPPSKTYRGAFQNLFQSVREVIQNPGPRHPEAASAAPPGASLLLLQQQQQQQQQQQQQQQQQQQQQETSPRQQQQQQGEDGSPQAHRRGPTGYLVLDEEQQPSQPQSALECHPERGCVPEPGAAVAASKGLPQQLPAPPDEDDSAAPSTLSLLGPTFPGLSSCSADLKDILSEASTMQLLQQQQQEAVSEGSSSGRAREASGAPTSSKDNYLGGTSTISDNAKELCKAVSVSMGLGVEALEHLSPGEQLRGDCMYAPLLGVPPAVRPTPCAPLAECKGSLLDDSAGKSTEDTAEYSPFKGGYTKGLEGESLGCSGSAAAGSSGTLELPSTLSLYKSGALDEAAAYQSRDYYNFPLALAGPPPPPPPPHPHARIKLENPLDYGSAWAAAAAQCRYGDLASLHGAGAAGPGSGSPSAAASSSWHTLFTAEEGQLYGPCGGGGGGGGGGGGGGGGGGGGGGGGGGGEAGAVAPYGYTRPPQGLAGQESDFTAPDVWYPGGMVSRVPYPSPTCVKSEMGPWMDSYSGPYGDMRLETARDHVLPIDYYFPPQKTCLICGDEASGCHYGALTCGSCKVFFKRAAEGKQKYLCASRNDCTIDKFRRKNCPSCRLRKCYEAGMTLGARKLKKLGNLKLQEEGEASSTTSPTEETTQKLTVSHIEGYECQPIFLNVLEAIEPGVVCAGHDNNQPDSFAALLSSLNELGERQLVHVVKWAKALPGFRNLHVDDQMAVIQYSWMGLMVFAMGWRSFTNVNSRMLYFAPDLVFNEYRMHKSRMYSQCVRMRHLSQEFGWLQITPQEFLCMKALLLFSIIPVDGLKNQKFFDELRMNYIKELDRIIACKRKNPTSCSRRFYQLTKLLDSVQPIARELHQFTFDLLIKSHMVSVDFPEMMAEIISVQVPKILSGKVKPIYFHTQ", "experiment": "Radioligand binding, [3H]mibolerone, hAR expressed in Sf9", "conditions": "hAR expressed in Sf9; [3H]mibolerone 0.3 nM; read-out: Mean Ki ± SEM hAR", "description": "as §1, §2"}, "[5]": {"experiment": "Pharmacokinetics (data not shown)"}}}
{"molecule": "O=c1[nH]c2ccc(/C=C3\\c4ccc(F)cc4COc4cc(F)ccc43)cc2[nH]1", "note": "[Ly]", "values": [{"measurement": "Permeability", "setting": "[1]", "value": "good permeability"}, {"measurement": "Ki", "setting": "[2]; hPR expressed in Sf9, [3H]progesterone 0.5 nM, read-out: Mean Ki ± SEM hPR", "value": "92 ± 19", "unit": "nM"}, {"measurement": "Ratio of Ki's hPR: hMR", "setting": "[2]; selectivity", "value": 58}, {"measurement": "Ratio of Ki's hAR: hMR", "setting": "[3]", "value": 202}, {"measurement": "Ki", "setting": "[4]", "value": "323 ± 101", "unit": "nM"}, {"measurement": "Pharmacokinetics properties", "setting": "[5]", "value": "good pharmacokinetics properties"}]}
